Source: US20210338782A1, “STORAGE STABLE SOMATOSTATIN-DOPAMINE CHIMERIC COMPOUNDS AND SALT FORMS THEREOF” (Cydan II, Inc., priority 2019, published 2021)
Counter-ions that a name gives are not always drawn.

Key:
Assay type in all cases: physicochemical
[1] = Thermogravimetric analysis (TGA) of TBR-760 salt forms; conditions: ramp 5.0° C. per minute from 25 to 400° C.; hydrochloride salt
Outline: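 Each salt form heated from 25 to 400 °C at 5.0 °C per minute while sample weight was recorded, to assess thermal stability.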

[2] = Thermostability of alternative salt forms of lanreotide and TBR-760 (UPLC); conditions: for thermostability in words: increasing temperature and humidity (25° C./60% RH, 40° C./75% RH, 60° C.) up to 4 weeks
Procedure: Each TBR-760 salt was further evaluated for thermolytic stability over time by setting up three different exposure conditions (25° C. at 60% relative humidity (RH); 40° C. at 75% RH; or 60° C. with open and closed container systems (open dish/closed dish). Approximately 50 mg of each salt form was weighed in a nitrogen-flushed glove box for use in the studies. All samples were stored at −20° C. in a good laboratory practice (GLP) freezer both before and after exposure to the indicated conditions.
The stability of each salt form was assessed by monitoring the post-exposure drug peak purity and by evaluating the post-exposure visual appearance of the salt. The samples were removed from the exposure conditions and allowed to equilibrate to ambient conditions for 15-20 mins. An appropriate amount of each sample was weighed for analysis and dissolved in diluent (deionized water containing 0.1% TFA) to obtain a stock concentration of 1 mg/mL. The stock solution was then diluted to 0.125 mg/mL in an HPLC vial using diluent and the samples were run on a Waters Acquity UPLC system using the parameters shown in Table 4.
We conducted thermostability studies of lanreotide acetate substantially as described in Example 6. These experiments confirmed that lanreotide acetate is […] when exposed to increasing temperature and humidity conditions over time (FIG. 45). […] (FIG. 45). This degree of thermal and humidity instability is disfavored for a pharmaceutical agent, particularly one intended for patient self-administration at home.
To determine whether a thermostable salt form of TBR-760 could be manufactured, a salt exchange was performed as described in Example 1 to generate bromide and chloride salts of TBR-760. Lanreotide bromide and lanreotide chloride salts were also generated and assessed for thermostability to evaluate the effect of the salt form on compound stability and to compare stability of lanreotide and TBR-760 of each salt.
UPLC assays performed as described in Example 6 were further used to determine the number of degradants—and thus the number of impurities—in each sample. Results showing the purity assessment of each sample following thermostability studies are shown in FIGS. 48A-48B (lanreotide and TBR-760 acetate salts), 49A-49B (lanreotide and TBR-760 bromide salts), and 50A-50B (lanreotide and TBR-760 chloride salts).

[3] = Time and temperature stability of lyophilized TBR-760 salts in sealed glass vials (visual appearance, HPLC); conditions: for salt form degraded: sealed glass vials, HPLC, hydrochloride salt
Procedure: Lyophilized TBR-760 salts prepared as described above were assessed for stability by visual appearance and HPLC following initial production of the salt and following incubation of the salt at 20° C., 40° C., and 60° C. for 2, 4, and 8 weeks in sealed, glass vials. Changes in visual appearance of the salt were noted by evaluating the color of the substance following each incubation condition. Purity of the salt following each incubation condition was evaluated by HPLC. The number and quantity of degradation products were determined according to the number of absorbance peaks that resulted at different retention times and the size of the peaks.

[4] = Photostability of alternative salt forms of lanreotide and TBR-760; conditions: 1.2 million lux hours visible light or 200 watt hours/square meter UV light, hydrochloride salt
Text: In order to evaluate the light sensitivity and stability of TBR-760 chimeric peptide salts, all five salt forms were exposed to ultraviolet (UV) and visible light according to International Council for Harmonisation of Technical Requirements for Pharmaceuticals for Human Use (ICH) guideline Q1B for photostability testing. In brief, a Caron 6540-1 photostability chamber unit with separate UV and light chambers was used for the studies. Visible light exposure was 1.2 million lux hours and UV exposure was 200 watt hours/square meter.
Photostability of lanreotide acetate, lanreotide bromide, lanreotide chloride, TBR-760 acetate, TBR-760 bromide and TBR760 chloride was tested according to the methods of Example 7. Four samples were prepared for each salt form: one control for each of the UV and visible light exposure conditions (controls isolated from light) and one sample for exposure to each of the UV and visible light conditions. For each sample, 2-5 mg of the salt was weighed into 3 mL clear serum vials and stoppered. Vials containing control samples were wrapped in aluminum foil.
Following exposure to visible and UV light, all lanreotide and TBR-760 salts were analyzed by UPLC as described in Example 7.

[5] = Photostability of TBR-760 salt forms (ICH Q1B, visible and UV light), appearance and UPLC purity; conditions: for degradation upon exposure to visible or UV light, in words: visible and UV light
Outline: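 Salt forms in clear sealed vials were exposed per ICH Q1B to 1.2 million lux hours visible and 200 watt hours/square meter UV, alongside foil-wrapped amber dark controls; reference controls were held at −20° C. Samples were inspected visually for appearance, then analysed by UPLC for purity.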

[6] = Solid state (thermolytic) stability of TBR-760 salt forms, open container, UPLC peak purity and appearance
Outline: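 About 50 mg of each salt form exposed in open containers at 25° C/60% RH, 40° C/75% RH or 60° C, then stored at −20° C. After 15–20 min equilibration, appearance was noted; samples were dissolved in 0.1% TFA water and diluted to 0.125 mg/mL for UPLC peak purity.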

[7] = all thermostability conditions, UPLC
[8] = 25° C. at 60% RH, open container
[9] = 40° C. at 75% RH, open container
[10] = 60° C., open dish, hydrochloride salt
[11] = UPLC peak purity, 25° C. at 60% RH, open container, hydrochloride salt
[12] = UPLC peak purity, 40° C. at 75% RH, open container, hydrochloride salt
[13] = UPLC peak purity, 60° C., open dish, hydrochloride salt

SMILES: CCCN1C[C@H](CSCC(=O)NCCCC[C@@H](NC(=O)CSC[C@@H]2C[C@@H]3c4cccc5[nH]cc(c45)C[C@H]3N(CCC)C2)C(=O)N[C@H]2CSSC[C@@H](C(=O)N[C@H](C(N)=O)[C@@H](C)O)NC(=O)[C@H](CC)NC(=O)[C@H](CCCCN)NC(=O)[C@@H](Cc3c[nH]c4ccccc34)NC(=O)[C@H](Cc3ccc(O)cc3)NC2=O)C[C@@H]2c3cccc4[nH]cc(c34)C[C@H]21 [TBR-760 chloride, Dop2-D-Lys(Dop2)-cyclo[Cys-Tyr-D-Trp-Lys-Abu-Cys]-Thr-NH2 hydrochloride salt]
- TGA start of decomposition [1]: ~245 °C
- compound degraded ([2]; 4 weeks at 60° C. and ambient humidity, hydrochloride salt): less than 0.6%
- number of impurities compared with other TBR-760 salts [2, 7]: fewer impurities
- percent purity compared with other TBR-760 salts [2, 7]: higher percent purity
- thermostability in words ([2]; listed as TBR-760 hydrochloride, hydrochloride salt): thermostable
- thermostability in words ([2]; listed as chloride salt form of TBR-760, hydrochloride salt): stable
- change in visual appearance ([3]; 8 weeks at 60° C.): no change in the visual appearance
- salt form degraded ([3]; 60° C. for 4 weeks): 0.5%
- salt form degraded ([3]; 60° C. for 8 weeks): less than 1%
- visible appearance after exposure to visible and UV light ([4]; versus control): did not visibly change
- photostability in words (UPLC purity) [4]: as photostable as TBR-760 acetate
- Purity, UV-exposed ([5]; UPLC, UV 200 watt hours/square meter, clear sealed vial, hydrochloride salt): 97.06
- Purity, Control ([5]; UPLC, control in sealed amber vial at -20° C., hydrochloride salt): 98.31
- Purity, Dark Ctrl-UV ([5]; UPLC, dark control in UV chamber, hydrochloride salt): 98.37
- Purity, Dark Crtl-Light ([5]; UPLC, dark control in visible light chamber, hydrochloride salt): 98.33
- Purity, Light-exposed ([5]; UPLC, visible light 1.2 million lux hours, clear sealed vial, hydrochloride salt): 96.41
- stability following UV exposure, in words ([5]; UV 200 watt hours/square meter): more stable following UV exposure than the acetate, mesylate, sulfate, or tosylate salts
- Appearance, UV-exposed ([5]; UV 200 watt hours/square meter, clear sealed vial, listed as Chloride, hydrochloride salt): white
- Appearance, UV-exposed ([5]; UV 200 watt hours/square meter, clear sealed vial, listed as chloride salt, hydrochloride salt): remained unchanged
- Appearance, Control ([5]; control in sealed amber vial at -20° C.): white
- Appearance, Dark Ctrl-UV ([5]; dark control in UV chamber, amber vial wrapped in aluminum foil): white
- Appearance, Dark Crtl-Light ([5]; dark control in visible light chamber, amber vial wrapped in aluminum foil): white
- degradation upon exposure to visible or UV light, in words ([5]; UPLC, hydrochloride salt): more resistant to degradation than TBR-760 acetate
- degradation upon exposure to visible or UV light, in words ([5]; UPLC, listed as TBR-760 chloride salt, hydrochloride salt): more stable
- stability following light exposure, in words ([5]; visible light 1.2 million lux hours): significantly more stable than the TBR-760 acetate salt
- Appearance, Light-exposed ([5]; visible light 1.2 million lux hours, clear sealed vial, listed as Chloride, hydrochloride salt): white
- Appearance, Light-exposed ([5]; visible light 1.2 million lux hours, clear sealed vial, listed as chloride, hydrochloride salt): no visible discoloration
- Appearance, T = 2 wk [6, 8]: White
- Appearance, T = 4 wk [6, 8]: White
- Appearance, T = 3 d [6, 8]: White
- stability compared with the other salt forms ([6]; 40° C. at 75% RH and 60° C., 2 and 4 weeks, hydrochloride salt): significantly more stable
- Appearance, T = 2 wk [6, 9]: White
- Appearance, T = 4 wk ([6]; 40° C. at 75% RH, open container, hydrochloride salt): White
- Appearance, T = 3 d [6, 9]: White
- Appearance, T = 2 wk [6, 10]: White
- Appearance, T = 4 wk [6, 10]: White
- Appearance, T = 3 d ([6]; 60° C., open dish): White
- Purity, T = 2 wk [6, 11]: 98.28
- Purity, T = 4 wk [6, 11]: 98.04
- Purity, T = 3 d [6, 11]: 98.44
- Purity, T = 2 wk [6, 12]: 97.62
- Purity, T = 4 wk [6, 12]: 97.78
- Purity, T = 3 d [6, 12]: 98.36
- Purity, T = 2 wk [6, 13]: 97.58
- Purity, T = 4 wk [6, 13]: 97.17
- Purity, T = 3 d [6, 13]: 98.45
- Purity, Control ([6]; UPLC peak purity, control, stored at -20° C., hydrochloride salt): 98.31
- Appearance, Control ([6]; control, stored at -20° C.): White
- additional degradants in chromatogram versus control ([6]; two weeks at 60° C., open dish, UPLC, hydrochloride salt): two
